Measurements as given in patent US20220213070A1, “COMPOUNDS INHIBITING TDG ACTIVITY” (EPITAS BIOSCIENCES (SHANGHAI) CO., LTD., priority 2019, published 2022).

Tests used:
TDG [1] = biological target: T1, TDG (Homo sapiens, UniProt Q13569); assay: Inhibition of TDG mismatch repair activity (fluorescent G·U double-stranded DNA probe T1-T2); assay type: biochemical; details: TDG 100 nM/L, preincubated with compound 37° C. 30 minutes; probe 30 nM; read-out: Inhibitory activity on TDG mismatch repair IC50
Source text: 14.1 Experimental Determination of Compound's Inhibitory Rate on TDG Mismatch Repair Activity
(1) A double-stranded DNA probe T1-T2 containing uracil bases was synthesized. The nucleotide sequence of the T1 chain was: 5′-FAM-TAAUGTGAATGGAGCTGAAAT-biotin-3′; The nucleotide sequence of the T2 chain was 5′-ATTTCAGCTCCATTCACGTTA-3′. Using PCR annealing program, the T1 strand and T2 strand were complementary to form a double-stranded DNA probe T1-T2.
(2) The reaction system and steps for each well of a 96-well plate were as follows: a. TDG (100 nM/L) was mixed with different concentrations of compounds, and the mixture was incubated at 37° C. for 30 minutes. The composition of the reaction buffer was: 20 mM HEPES pH7.5, 100 mM NaCl, 0.2 mM EDTA, 2.5 mM MgCl2; b. The double-stranded DNA probe T1-T2 was added to the mixture to obtain a final volume of 100 μL, with a concentration of 30 nM, and the mixture was incubated at 25° C. for 30 min; c. 1 μL of streptavidin magnetic beads were added to the reaction solution and fully bound the biotin-labeled DNA for 1 hour; d. NaOH was added to the reaction solution to a final concentration of 200 mM, and the mixture was incubated at room temperature for 30 minutes; e. Under the action of a magnetic stand the streptavidin magnetic beads were adsorbed to the tube wall, the supernatant was transferred to a new 96-well plate, and placed in a Tecan microplate reader for fluorescence measurement. The parameter settings were: excitation wavelength 485 nm; emission wavelength 520 nm. A linear curve between fluorescence intensity and TDG concentration was constructed, R^2=0.9968, and the linear range was 0-50 nM/L;
According to the biological method described in this example, the selected compounds of the present invention were analyzed, and the results are shown in Table 1. Among them, “++” in Table 1 refers to the inhibitory activity for TDG mismatch repair with IC50≤5 μM; “+” refers to the inhibitory activity for TDG mismatch repair with IC50>5 μM.

[2] = system: Lung cancer cell line Calu-1; assay: Inhibition of the growth of Calu-1 cells (CellTiter-Glo, 72 hours); assay type: cell-based; details: Homo sapiens, 72 hours of culturing, read-out: Inhibitory activity on alu-1 cell growth IC50
Description: 14.2 Experimental Determination of Compound's Inhibitory Rate on the Growth of Calu-1 Cells
Lung cancer cell line Calu-1 was cultured in 90% McCoy's 5A medium (BI, 01-075-1ACS)+10% fetal bovine serum (Gibco, 10270106), placed in a CO2 incubator (37° C., 5% CO2, 95% air) for culturing. Calu-1 cells were digested with trypsin (Gibco, 12604-021) and seeded in a 384-well plate at a density of 500 cells per well. The medium was 50 μL and it was cultured overnight at 37° C. in an incubator. On the next day, different concentrations of test compounds were added, and the final concentration of DMSO was 0.1%. After 72 hours of culturing, the cells were taken out for test. The cell culture medium from the 384-well plate to be tested was removed, and fresh culture medium premixed with CTG was immediately added: the ratio of the culture medium to CellTiter-Glo® 2.0 reagent (Promega, G9243) was 2:1, 30 ul was added to each well. The plate was shaken at room temperature for 20 minutes, and then a multi-function plate reader (TECAN, Infinite 200 Pro) was used according to the reagent instructions to determine the cell survival.
According to the biological method described in this example, the selected compounds of the present invention were analyzed, and the results are shown in Table 1. Among them, “++” in Table 1 refers to the inhibitory activity on the growth of calu-1 cells with IC50≤5 μM; “+” refers to the inhibitory activity on the growth of calu-1 cells with IC50>5 μM.

TDG [3] = biological target: T1, TDG; assay: TDG inhibitory activity of compounds in cells (caC-cmv-firefly luciferase reporter, HEK 293T TDG KO cells transfected with pCDNA4-TDG); assay type: cell-based; details: read-out: Inhibition rate on TDG activity
Description: Experimental Determination of TDG Inhibitory Activity of Compounds in Cells
The operation steps of this example are as follows:
(1) Preparation of Methylation Reporter Plasmid:
(a) SAM with a stock solution concentration of 32 mM was diluted with ultrapure water to 1600 μM;
(b) The reaction system was prepared according to the following ratio: 30 μl ultrapure water, 5 μl 10×NEBuffer 2, 5 μl diluted SAM, 1 μg pCpGL-CMV-firefly plasmid, 1 μl SssI methylase (4 U/μl); 50 μl in total, the reaction was carried out at 37° C. for 2 hours;
(c) The mixture was heated at 65° C. for 20 minutes. Then 0.2% SDS was added, the reaction was carried out at 80° C. for 10 min; and then 1 μl Proteinase K was added, the reaction was carried out at 50° C. for 1 h;
(d) The methylated plasmid was recovered with Dr. GenTLE® sedimentation aid (TAKARA).
(2) Preparation of 5fC/5caC pCpGL-CMV-Firefly Reporter Plasmid
(a) The following 10× reaction system was prepared:
(b) The reaction system was prepared according to the following ratio:
(c) The reaction was carried out at 37° C. for one hour;
(d) 24 μg Tet1 protein was added for the second time and the reaction was continued for one hour;
(e) SDS was added to a final concentration of 0.5%, 80° C., 10 minutes, then 1 μl Proteinase K was added, 55° C. overnight.
(f) The treated caC-cmv-firefly plasmid was recovered with Dr. GenTLE® sedimentation aid (TAKARA) and was quantified.
(3) Using the Luciferase Activity Assay Method to Detect the Inhibitory Rate of Small Molecule Compounds on Intracellular TDG Enzyme Activity
In a 96-well plate, the reaction system and operation flow of each well were as follows:
(a) 1 ng caC-cmv-firefly, Ing pCpGL-CMV-Relina and 150 ng pCDNA4-TDG or 150 ng pCDNA4-myc plasmid, were diluted to 75 ul Opti-MEM, mixed well and allowed to stand still for 5 minutes;
(b) 2 ul transfection reagent (Hieff Trans™ Liposomal transfection Reagent (0.5 ul/well, YEAEEN, Cat #40802)) was diluted in 100 ul Opti-MEM, mixed well and allowed to stand still for 5 minutes;
(c) 75 ul of (a) and (b) were mixed respectively, and allowed to stand still at room temperature for 20 minutes;
(d) HEK 293T TDG KO cells were digested with trypsin, the cells were collected and counted, and the suspension cell concentration was adjusted to 4×10^5/ml;
(e) 50 ul of the mixture (c) was added to each well, and at the same time 100 ul of the diluted cell suspension was added to the same well, and they were mixed well.
(f) After the cells adhering to the wall, different concentrations of small molecule compounds to be tested were added to each well.
(g) Incubation was performed in a 37° C. CO2 incubator for 72 hours. The supernatant was removed and the cells were quickly freezed at −80° C.
(h) Before detecting the luciferase activity, the cells to be tested were removed from −80° C. and allowed to stand still at room temperature for 30 minutes. Following the instructions of Dual-Glo® Luciferase Reagent (PROMEGA), the firefly fluorescence value and Renilla fluorescence value of each well were detected.
(i) The firefly fluorescence value was divided with the Renilla fluorescence value of each well; 96-well plate Z′ and experimental window was calculated by the ratio of transfected caC-cmv-firefly, pCpGL-CMV-Relina, pCDNA4-TDG plasmid mixture plus DMSO experimental group to transfected caC-cmv-firefly, pCpGL-CMV-Relina, pCDNA4-myc plasmid mixture plus DMSO experimental group, and the relative enzyme activity inhibition rate of each compound was calculated.
According to the biological method described in this example, the selected compounds of the present invention were analyzed, and the results are shown in Table 2. Among them, “+” in Table 2 refers to the compound's TDG inhibitory activity at a concentration of 10 μM≤25%; “++” refers to the compound's TDG inhibitory activity at a concentration of 10 μM>25%.

T1 sequence (Q13569 whole entry): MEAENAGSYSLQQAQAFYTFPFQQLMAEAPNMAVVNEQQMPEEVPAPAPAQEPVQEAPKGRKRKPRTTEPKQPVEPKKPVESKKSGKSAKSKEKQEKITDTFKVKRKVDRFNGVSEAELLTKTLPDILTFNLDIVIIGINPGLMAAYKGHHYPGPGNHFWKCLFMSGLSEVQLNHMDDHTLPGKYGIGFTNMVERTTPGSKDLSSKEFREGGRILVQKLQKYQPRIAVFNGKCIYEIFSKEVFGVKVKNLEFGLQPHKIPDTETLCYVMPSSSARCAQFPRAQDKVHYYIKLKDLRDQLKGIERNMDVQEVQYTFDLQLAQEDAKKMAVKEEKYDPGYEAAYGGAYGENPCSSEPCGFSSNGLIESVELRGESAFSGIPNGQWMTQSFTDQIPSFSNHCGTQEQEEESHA

Row | SMILES | IC50 (TDG [1]) [µM] | IC50 [2] [µM] | inhibition at 10 µM (TDG [3]) [%]
1 | O=C(CCN1CCCc2ccccc21)c1ccc2c(c1)OCCO2 [Compound 14, 1-(2,3-dihydrobenzo[b][1,4]dioxin-6-yl)-3-(3,4-dihydrouinoline-1(2H)-yl)propan-1-one] | > 5 | > 5 | < 25
2 | O=C(CCN1Cc2ccc(-c3ccc(F)cc3)cc2C1)c1ccc2c(c1)OCCO2 [Compound 40, 1-(2,3-dihydrobenzo[b][1,4]dioxin-6-yl)-3-(5-(4-fluorophenyl)isoindolin-2-yl)propan-1-one] | > 5 | > 5 | < 25
3 | O=C(CCN1CCC(=O)c2ccccc21)c1ccc2c(c1)OCCO2 [Compound 27, 1-(3-(2,3-dihydrobenzo[b][1,4]dioxin-6-yl)-3-oxopropyl)-2,3-dihydroquinoline-4(1H)-one] | > 5 | > 5 | < 25
4 | O=C(CCN1CCC(c2ccc(F)c(O)c2)C1)c1ccc2c(c1)OCCO2 (stereo not drawn) [Compound 52, 1-(2,3-dihydrobenzo[b][1,4]dioxin-6-yl)-3-(3-(4-fluoro-3-hydroxyphenyl)pyrrolidine-1-yl)propan-1-one] | ≤ 5 | ≤ 5 | < 25
5 | O=C(CCN1Cc2ccc(Br)cc2C1)c1ccc2c(c1)OCCO2 [Compound 3, 3-(5-bromoisoindolin-2-yl)-1-(2,3-dihydrobenzo[b][1,4]dioxin-6-yl)propan-1-one] | ≤ 5 | > 5 | < 25
6 | O=C(CCN1Cc2ccccc2C1)c1ccc(O)c(O)c1 [Compound 39, 1-(3,4-dihydroxyphenyl)-3-(isoindolin-2-yl)propan-1-one] | > 5 | > 5 | < 25
7 | O=C(CCN1C(=O)CSC1=S)c1ccc2c(c1)OCCO2 [Compound 22, 3-(3-(2,3-dihydrobenzo[b][1,4]dioxin-6-yl)-3-oxopropyl)-2-thiothiazolidine-4-one] | > 5 | > 5 | < 25
8 | O=C(CCN1CCOc2ccccc21)c1ccc2c(c1)OCCO2 [Compound 15, 3-(2,3-dihydro-4H-benzo[b][1,4]oxazin-4-yl)-1-(2,3-dihydrobenzo[b][1,4]dioxin-6-yl)propan-1-one] | > 5 | > 5 | < 25
9 | O=C(CCN1Cc2ccccc2C1)c1ccc2c(c1)CCO2 [Compound 34, 1-(2,3-dihydrobenzofuran-5-yl)-3-(isoindolin-2-yl)propan-1-one] | > 5 | > 5 | < 25
10 | O=C(CCN1Cc2ccc(F)cc2C1)c1ccc2c(c1)OCCO2 [Compound 6, 1-(2,3-dihydrobenzo[b][1,4]dioxin-6-yl)-3-(5-fluoroiso-2-yl)propan-1-one] | ≤ 5 | > 5 | < 25
11 | c1ccc2c(c1)CN(CCCc1ccc3c(c1)OCCO3)C2 [Compound 29, 2-(3-(2,3-dihydrobenzo[b][1,4]dioxin-6-yl)propyl)isoindoline] | > 5 | > 5 | > 25
12 | O=C(CCN1Cc2ccccc2C1)c1ccc2c(c1)OCCO2 [Compound 1, 1-(2,3-dihydrobenzo[b][1,4]dioxin-6-yl)-3-(isoindolin-2-yl)propan-1-one] | ≤ 5 | ≤ 5 | > 25
13 | O=C(CCNc1ccc2cnccc2c1)c1ccc2c(c1)OCCO2 [Compound 20, 1-(2,3-dihydrobenzo[b][1,4]dioxin-6-yl)-3-(isoquinolin-6-ylamino)propan-1-one] | > 5 | > 5 | < 25
14 | O=C(CCN1CCC(c2ccccc2)CC1)c1ccc2c(c1)OCCO2 [Compound 21, 1-(2,3-dihydrobenzo[b][1,4]dioxin-6-yl)-3-(4-phenylpiperidin-1-yl)propan-1-one] | ≤ 5 | > 5 | < 25
15 | O=C(CCN1CCC(O)(c2ccc(F)cc2)C1)c1ccc2c(c1)OCCO2 (stereo not drawn) [Compound 43, 1-(2,3-dihydrobenzo[b][1,4]dioxin-6-yl)-3-(3-(4-fluorophenyl)-3-hydroxypyrrolidine-1-yl)propan-1-one] | ≤ 5 | ≤ 5 | < 25
16 | O=C(CCN1CCc2ccccc21)c1ccc2c(c1)OCCO2 [Compound 11, 1-(2,3-dihydrobenzo[b][1,4]dioxin-6-yl)-3-(indoline-1-yl)propan-1-one] | > 5 | > 5 | < 25
17 | O=C(c1ccc2c(c1)OCCO2)N1Cc2ccccc2C1 [Compound 33, (2,3-dihydrobenzo[b][1,4]dioxin-6-yl)(isoindolin-2-yl)methanone] | > 5 | > 5 | < 25
